# In patent US6150385A, “1,3,4-thiadiazoles useful for the treatment of CMV infections” (Pharmacia & Upjohn Company, priority 1999, dated 2000):
# Biological target: T1, HCMV polymerase (Human cytomegalovirus, UniProt P08546)
# T1 construct: made in house; host or cells: SF-9 insect cells infected with recombinant baculovirus
# Assay: HCMV polymerase assay (scintillation proximity assay)
# Type: biochemical
# Conditions: percentage of inhibition at 25 μM concentration in CMV polymerase assay
# Description: The compounds of the present invention are tested in an polymerase assay to show activity described below, which is indicative of a compound's activity and thus of its use as an anti-viral agent.
# The HCMV polymerase assay is performed using a scintillation proximity assay (SPA) as described in several references, such as N. D. Cook, et al., Pharmaceutical Manufacturing International, pages 49-53 (1992); K. Takeuchi, Laboratory Practice, September issue (1992); U.S. Pat. No. 4,568,649 (1986); which are incorporated by reference herein. Reactions are performed in 96-well plates. The assay is conducted in 100 μl volume with 5.4 mM HEPES (pH 7.5), 11.7 mM KCl, 4.5 mM MgCl2, 0.36 mg/ml BSA, and 90 nM ^3 H-dTTP. Assays are run with and without CHAPS, (3-[(3-Cholamidopropyl)-dimethylammonio]-1-propanesulfonate) at a final concentration of 2 mM. HCMV is diluted in enzyme dilution buffer containing 50% glycerol, 250 mM NaCl, 10 mM HEPES (pH 7.5), 100 μg/ml BSA, and 0.01% sodium azide. The HCMV polymerase, which is expressed in recombinant baculovirus-infected SF-9 cells and purified according to literature procedures, is added at 10% (or 10 μl) of the final reaction volume, i.e., 100 μl. Compounds are diluted in 50% DMSO and 10 μl are added to each well. Control wells contain an equivalent concentration of DMSO. Unless noted otherwise, reactions are initiated via the addition of 6 nM biotinylated poly(dA)-oligo(dT) template/primer to reaction mixtures containing the enzyme, substrate, and compounds of interest. Plates are incubated in a 25° C. or 37° C. H2 O bath and terminated via the addition of 40 μl/reaction of 0.5 M EDTA (pH 8) per well. Reactions are terminated within the time-frame during which substrate incorporation is linear and varied depending upon the enzyme and conditions used, i.e., 30 min. for HCMV polymerase. Ten μl of streptavidin-SPA beads (20 mg/ml in PBS/10% glycerol) are added following termination of the reaction. Plates are incubated 10 min. at 37° C., then equilibrated to room temperature, and counted on a Packard Topcount.
# In TABLE 1, "MS" refers to mass spectral data, "% inhib" refers to percentage of inhibition at 25 μM concentration in CMV polymerase assay.
# T1 sequence (P08546 whole entry): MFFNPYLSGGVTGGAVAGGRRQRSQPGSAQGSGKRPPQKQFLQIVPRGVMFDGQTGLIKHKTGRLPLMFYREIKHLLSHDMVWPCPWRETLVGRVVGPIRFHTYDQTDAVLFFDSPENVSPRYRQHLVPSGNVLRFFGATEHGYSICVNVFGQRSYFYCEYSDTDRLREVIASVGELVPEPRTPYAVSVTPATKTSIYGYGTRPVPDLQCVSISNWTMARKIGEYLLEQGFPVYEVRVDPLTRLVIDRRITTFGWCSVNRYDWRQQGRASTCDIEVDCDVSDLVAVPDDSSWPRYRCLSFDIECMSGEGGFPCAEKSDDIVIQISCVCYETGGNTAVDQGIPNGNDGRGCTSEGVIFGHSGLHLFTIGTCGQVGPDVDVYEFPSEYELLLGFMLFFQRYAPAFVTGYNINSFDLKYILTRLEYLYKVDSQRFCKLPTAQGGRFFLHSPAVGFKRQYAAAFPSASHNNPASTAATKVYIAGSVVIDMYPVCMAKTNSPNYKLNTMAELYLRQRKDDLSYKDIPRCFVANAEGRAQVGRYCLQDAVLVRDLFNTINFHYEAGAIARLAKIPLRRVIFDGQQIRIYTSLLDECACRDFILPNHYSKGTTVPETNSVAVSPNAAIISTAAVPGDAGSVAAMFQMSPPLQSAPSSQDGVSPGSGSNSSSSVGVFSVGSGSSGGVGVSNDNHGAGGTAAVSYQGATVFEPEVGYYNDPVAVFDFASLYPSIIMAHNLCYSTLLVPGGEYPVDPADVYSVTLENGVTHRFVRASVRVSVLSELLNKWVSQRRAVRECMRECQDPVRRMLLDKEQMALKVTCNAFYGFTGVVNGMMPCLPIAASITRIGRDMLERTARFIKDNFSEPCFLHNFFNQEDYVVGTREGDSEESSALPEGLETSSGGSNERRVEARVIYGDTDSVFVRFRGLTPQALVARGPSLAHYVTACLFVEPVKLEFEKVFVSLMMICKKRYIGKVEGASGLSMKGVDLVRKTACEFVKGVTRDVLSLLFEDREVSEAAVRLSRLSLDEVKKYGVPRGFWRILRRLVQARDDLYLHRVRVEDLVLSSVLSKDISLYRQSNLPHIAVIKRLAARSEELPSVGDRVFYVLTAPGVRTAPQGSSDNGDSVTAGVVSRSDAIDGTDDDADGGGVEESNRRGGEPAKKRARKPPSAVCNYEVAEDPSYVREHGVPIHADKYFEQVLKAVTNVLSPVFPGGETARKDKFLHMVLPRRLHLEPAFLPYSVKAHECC
row,SMILES,inhibition at 25 µM [%]
1,"CCCCCCCC/C=C/CCCCCCCC(=O)Nc1nnc(NCCCNC2CCCCC2)s1 [compound 1, (E)-N-(5-{[3-(cyclohexylamino)propyl]amino}-1,3,4-thiadiazol-2-yl)-9-octadecenamide]",100
2,"O=C(Nc1nnc(NCCCNC2CCCCC2)s1)c1ccc2c(c1)C(=O)OC2=O [compound 2, N-(5-{[3-(cyclohexylamino)propyl]amino}-1,3,4-thiadiazol-2-yl)-1,3-dioxo-1,3-dihydro-2-benzofuran-5-carboxamide]",100
3,"O=C(Nc1nnc(NCC2CCCCC2)s1)c1ccc2c(c1)C(=O)OC2=O [compound 3, N-{5-[(cyclohexylmethyl)amino]-1,3,4-thiadiazol-2-yl}-1,3-dioxo-1,3-dihydro-2-benzofuran-5-carboxamide]",100
4,"CCCCCCCCCCCNc1nnc(NC(=O)c2ccc3c(c2)C(=O)OC3=O)s1 [compound 4, 1,3-dioxo-N-[5-(undecylamino)-1,3,4-thiadiazol-2-yl]-1,3-dihydro-2-benzofuran-5-carboxamide]",100
5,"CCCCCCCC/C=C/CCCCCCCC(=O)Nc1nnc(NCCC2CCCN2C)s1 (stereo not shown) [compound 5, (E)-N-(5-{[2-(1-methyl-2-pyrrolidinyl)ethyl]amino}-1,3,4-thiadiazol-2-yl)-9-octadecenamide]",99.9
6,"O=C(Nc1nnc(NCCNc2ccccc2)s1)c1ccc2c(c1)C(=O)OC2=O [compound 6, N-{5-[(2-anilinoethyl)amino]-1,3,4-thiadiazol-2-yl}-1,3-dioxo-1,3-dihydro-2-benzofuran-5-carboxamide]",99.9
7,"O=C(Nc1nnc(NCc2ccc(F)cc2)s1)c1ccc2c(c1)C(=O)OC2=O [compound 7, N-{5-[(4-fluorobenzyl)amino]-1,3,4-thiadiazol-2-yl}-1,3-dioxo-1,3-dihydro-2-benzofuran-5-carboxamide]",99.8
8,"O=C(Nc1nnc(NCc2cccc3ccccc23)s1)c1ccc2c(c1)C(=O)OC2=O [compound 8, N-{5-[(1-naphthylmethyl)amino]-1,3,4-thiadiazol-2-yl}-1,3-dioxo-1,3-dihydro-2-benzofuran-5-carboxamide]",99.8
9,"O=C(Nc1nnc(NCCc2cccs2)s1)c1ccc2c(c1)C(=O)OC2=O [compound 9, 1,3-dioxo-N-(5-{[2-(2-thienyl)ethyl]amino}-1,3,4-thiadiazol-2-yl)-1,3-dihydro-2-benzofuran-5-carboxamide]",99.8
10,"O=C(Nc1nnc(NCCc2c[nH]c3ccccc23)s1)c1ccc2c(c1)C(=O)OC2=O [compound 10, N-(5-{[2-(1H-indol-3-yl)ethyl]amino}-1,3,4-thiadiazol-2-yl)-1,3-dioxo-1,3-dihydro-2-benzofuran-5-carboxamide]",99.7
11,"O=C(Nc1nnc(NCCCCc2ccccc2)s1)c1ccc2c(c1)C(=O)OC2=O [compound 11, 1,3-dioxo-N-{5-[(4-phenylbutyl)amino]-1,3,4-thiadiazol-2-yl}-1,3-dihydro-2-benzofuran-5-carboxamide]",99.6
12,"O=C(Nc1nnc(NCc2ccc(Cl)c(Cl)c2)s1)c1ccc2c(c1)C(=O)OC2=O [compound 12, N-{5-[(3,4-dichlorobenzyl)amino]-1,3,4-thiadiazol-2-yl}-1,3-dioxo-1,3-dihydro-2-benzofuran-5-carboxamide]",99.5
13,"O=C(Nc1nnc(NCCC(c2ccccc2)c2ccccc2)s1)c1ccc2c(c1)C(=O)OC2=O [compound 13, N-{5-[(3,3-diphenylpropyl)amino]-1,3,4-thiadiazol-2-yl}-1,3-dioxo-1,3-dihydro-2-benzofuran-5-carboxamide]",99.3
14,"CCCCCCCC/C=C/CCCCCCCC(=O)Nc1nnc(NCCCN2CCN(C)CC2)s1 [compound 14, (E)-N-(5-{[3-(4-methylpiperazino)propyl]amino}-1,3,4-thiadiazol-2-yl)-9-octadecenamide]",99
15,"NS(=O)(=O)c1ccc(CCNc2nnc(NC(=O)c3ccc4c(c3)C(=O)OC4=O)s2)cc1 [compound 15, N-(5-{[4-(aminosulfonyl)phenethyl]amino}-1,3,4-thiadiazol-2-yl)-1,3-dioxo-1,3-dihydro-2-benzofuran-5-carboxamide]",98.8
16,"COc1ccc(CNc2nnc(NC(=O)c3ccc4c(c3)C(=O)OC4=O)s2)cc1OC [compound 16, N-{5-[(3,4-dimethoxybenzyl)amino]-1,3,4-thiadiazol-2-yl}-1,3-dioxo-1,3-dihydro-2-benzofuran-5-carboxamide]",98.7

row,SMILES,inhibition at 25 µM [%]
1,"O=C(Nc1nnc(NCC(c2ccccc2)c2ccccc2)s1)c1ccc2c(c1)C(=O)OC2=O [compound 17, N-{5-[(2,2-diphenylethyl)amino]-1,3,4-thiadiazol-2-yl}-1,3-dioxo-1,3-dihydro-2-benzofuran-5-carboxamide]",98.6
2,"CCCCCCCC/C=C/CCCCCCCC(=O)Nc1nnc(NCc2ccc(S(N)(=O)=O)cc2)s1 [compound 18, (E)-N-(5-{[4-(aminosulfonyl)benzyl]amino}-1,3,4-thiadiazol-2-yl)-9-octadecenamide]",98.3
3,"CCCCCCCC/C=C/CCCCCCCC(=O)Nc1nnc(NCCN2CCCC2)s1 [compound 19, (E)-N-(5-{[2-(1-pyrrolidinyl)ethyl]amino}-1,3,4-thiadiazol-2-yl)-9-octadecenamide]",97.7
4,"O=C(Nc1nnc(NCc2ccc3c(c2)OCO3)s1)c1ccc2c(c1)C(=O)OC2=O [compound 20, N-{5-[(1,3-benzodioxol-5-ylmethyl)amino]-1,3,4-thiadiazol-2-yl}-1,3-dioxo-1,3-dihydro-2-benzofuran-5-carboxamide]",97.7
5,"O=C(Nc1nnc(NC2CCCc3ccccc32)s1)c1ccc2c(c1)C(=O)OC2=O (stereo not shown) [compound 21, 1,3-dioxo-N-[5-(1,2,3,4-tetrahydro-1-naphthalenylamino)-1,3,4-thiadiazol-2-yl]-1,3-dihydro-2-benzofuran-5-carboxamide]",97.4
6,"COc1ccccc1C(=O)Nc1nnc(NC[C@@H]2CCC3CC2C3(C)C)s1 (stereo partly drawn) [compound 22, N-[5-({[(2R)-6,6-dimethylbicyclo[3.1.1]hept-2-yl]methyl}amino)-1,3,4-thiadiazol-2-yl]-2-methoxybenzamide]",97.2
7,"CCCCCCCC/C=C/CCCCCCCC(=O)Nc1nnc(NCCN(C)C)s1 [compound 23, (E)-N-(5-{[2-(dimethylamino)ethyl]amino}-1,3,4-thiadiazol-2-yl)-9-octadecenamide]",97
8,"O=C(Nc1nnc(NCCc2ccccc2)s1)c1ccc2c(c1)C(=O)OC2=O [compound 24, 1,3-dioxo-N-[5-(phenethylamino)-1,3,4-thiadiazol-2-yl]-1,3-dihydro-2-benzofuran-5-carboxamide]",95.6
9,"CC1(C)C2CC[C@@H](CNc3nnc(NC(=O)c4ccc5c(c4)C(=O)OC5=O)s3)C1C2 (stereo partly drawn) [compound 25, N-[5-({[(2R)-6,6-dimethylbicyclo[3.1.1]hept-2-yl]methyl}amino)-1,3,4-thiadiazol-2-yl]-1,3-dioxo-1,3-dihydro-2-benzofuran-5-carboxamide]",93.9
10,"CCOc1ccc2ccccc2c1C(=O)Nc1nnc(NCc2ccc(S(N)(=O)=O)cc2)s1 [compound 26, N-(5-{[4-(aminosulfonyl)benzyl]amino}-1,3,4-thiadiazol-2-yl)-2-ethoxy-1-naphthamide]",93.1
11,"CCOc1ccc2ccccc2c1C(=O)Nc1nnc(NCCCNC2CCCCC2)s1 [compound 27, N-(5-{[3-(cyclohexylamino)propyl]amino}-1,3,4-thiadiazol-2-yl)-2-ethoxy-1-naphthamide]",92.9
12,"CCCCCCCC/C=C/CCCCCCCC(=O)Nc1nnc(NC2CC2)s1 [compound 28, (E)-N-[5-(cyclopropylamino)-1,3,4-thiadiazol-2-yl]-9-octadecenamide]",92.6
13,"O=C(Nc1nnc(NC2CCCCCC2)s1)c1ccc2c(c1)C(=O)OC2=O [compound 29, N-[5-(cycloheptylamino)-1,3,4-thiadiazol-2-yl]-1,3-dioxo-1,3-dihydro-2-benzofuran-5-carboxamide]",92.4
14,"NS(=O)(=O)c1ccc(CNc2nnc(NC(=O)c3c(Cl)cccc3Cl)s2)cc1 [compound 30, N-(5-{[4-(aminosulfonyl)benzyl]amino}-1,3,4-thiadiazol-2-yl)-2,6-dichlorobenzamide]",91.8
15,"CCCCCCCC/C=C/CCCCCCCC(=O)Nc1nnc(NC2CCCCCC2)s1 [compound 31, (E)-N-[5-(cycloheptylamino)-1,3,4-thiadiazol-2-yl]-9-octadecenamide]",91.8
